US7479561B2, “4-(2,4-dichloro-5-methoxyphenyl)amino-6-methoxy-7-{[5-substituted-amino)methyl]-3-furyl}-3-quinolinecarbonitriles as kinase inhibitors” (Wyeth, priority 2004, dated 2009)
Where “and” joins values, the source holds several entries; their conditions need not be identical. Equal entries are not always repeated.

target: T1, Recombinant human Src enzyme (Homo sapiens, UniProt P12931); assay: Src Kinase Assay (LANCE FRET); assay type: biochemical; details: 100 μM ATP; multiple entries = tested multiple times; read-out: Src enzyme IC50
T1 construct: purchased PanVera P3044
T1 sequence (P12931 whole entry): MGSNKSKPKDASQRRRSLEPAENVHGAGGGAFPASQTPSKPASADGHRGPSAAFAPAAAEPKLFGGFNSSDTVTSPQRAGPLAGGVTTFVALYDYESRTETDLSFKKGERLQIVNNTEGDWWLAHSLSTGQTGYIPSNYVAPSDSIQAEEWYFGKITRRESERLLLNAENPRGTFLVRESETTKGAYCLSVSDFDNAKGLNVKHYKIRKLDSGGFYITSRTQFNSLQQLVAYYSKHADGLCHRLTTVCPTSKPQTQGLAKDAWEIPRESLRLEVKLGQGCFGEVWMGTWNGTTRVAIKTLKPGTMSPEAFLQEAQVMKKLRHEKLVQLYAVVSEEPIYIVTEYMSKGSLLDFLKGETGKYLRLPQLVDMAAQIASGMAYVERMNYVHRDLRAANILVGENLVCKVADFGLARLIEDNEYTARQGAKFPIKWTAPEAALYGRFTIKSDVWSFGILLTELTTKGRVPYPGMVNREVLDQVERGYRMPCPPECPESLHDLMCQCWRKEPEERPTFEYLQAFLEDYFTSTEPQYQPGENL
Method: Recombinant human Src enzyme was obtained from PanVera (P3044). […] Homogeneous fluorescence resonance energy transfer kinase assays were performed using the europium/APC detection format (LANCE, Perkin Elmer). Src enzyme (10 ng) was mixed with biotinylated peptide (final concentration 2 μM), 50 mM Hepes (pH 7.5), 10 mM MgCl2, 20 ug/ml BSA, 0.001% Brij-35 (Sigma), 100 μM ATP, 1% DMSO. The kinase reaction was incubated for 70 min at 37° C. The reaction was stopped with EDTA at a final concentration of 30 mM EDTA/25 mM Hepes (pH 7.5)/10 μg/ml BSA. The mixture was combined with Eu-labeled anti-phosphotyrosine antibody PT66 (Perkin Elmer, AD0068) and Streptavidin Surelight-APC (Perkin Elmer, CR130-100) in 50 mM Hepes (pH 7.5)/20 μg/ml BSA, and incubated for 30 min according to manufacturer's specifications. […] Multiple entries for a given compound indicate that it was tested multiple times.

Compound	IC50
COc1cc(Nc2c(C#N)cnc3cc(-c4coc(CN5CCCC5)c4)c(OC)cc23)c(Cl)cc1Cl [Example 6, 4-[(2,4-dichloro-5-methoxyphenyl)amino]-6-methoxy-7-[5-(pyrrolidin-1-ylmethyl)-3-furyl]quinoline-3-carbonitrile]	0.8 nM and 0.9 nM
COc1ccc(N2CCN(Cc3cc(-c4cc5ncc(C#N)c(Nc6cc(OC)c(Cl)cc6Cl)c5cc4OC)co3)CC2)cc1 [Example 20, 4-[(2,4-dichloro-5-methoxyphenyl)amino]-6-methoxy-7-(5-{[4-(4-methoxyphenyl)piperazin-1-yl]methyl}-3-furyl)quinoline-3-carbonitrile]	10 nM and 11.7 nM
COc1cc(Nc2c(C#N)cnc3cc(-c4coc(CN5CC[S+]([O-])CC5)c4)c(OC)cc23)c(Cl)cc1Cl [Example 18, 4-[(2,4-dichloro-5-methoxyphenyl)amino]-6-methoxy-7-{5-[(1-oxidothiomorpholin-4-yl)methyl]-3-furyl}quinoline-3-carbonitrile]	1.5 nM and 2.4 nM
CCCCN1CCN(Cc2cc(-c3cc4ncc(C#N)c(Nc5cc(OC)c(Cl)cc5Cl)c4cc3OC)co2)CC1 [Example 12, 7-{5-[(4-butylpiperazin-1-yl)methyl]-3-furyl}-4-[(2,4-dichloro-5-methoxyphenyl)amino]-6-methoxyquinoline-3-carbonitrile]	2.5 nM and 2.1 nM
COc1cc(Nc2c(C#N)cnc3cc(-c4coc(CN5CCN(CCc6ccccc6)CC5)c4)c(OC)cc23)c(Cl)cc1Cl [Example 15, 4-[(2,4-dichloro-5-methoxyphenyl)amino]-6-methoxy-7-(5-{[4-(2-phenylethyl)piperazin-1-yl]methyl}-3-furyl)quinoline-3-carbonitrile]	18.3 nM and 13.3 nM
COc1cc(Nc2c(C#N)cnc3cc(-c4coc(CN5CCN(C6CCCCC6)CC5)c4)c(OC)cc23)c(Cl)cc1Cl [Example 19, 7-{5-[(4-cyclohexylpiperazin-1-yl)methyl]-3-furyl}-4-[(2,4-dichloro-5-methoxyphenyl)amino]-6-methoxyquinoline-3-carbonitrile]	3.6 nM and 2.8 nM
COc1cc(Nc2c(C#N)cnc3cc(-c4coc(CN5CCN(c6ccc(Cl)cc6)CC5)c4)c(OC)cc23)c(Cl)cc1Cl [Example 23, 7-(5-{[4-(4-chlorophenyl)piperazin-1-yl]methyl}-3-furyl)-4-[(2,4-dichloro-5-methoxyphenyl)amino]-6-methoxyquinoline-3-carbonitrile]	18.9 nM and 17 nM
COc1cc(Nc2c(C#N)cnc3cc(-c4coc(CN5CCN(C6CCN(C)CC6)CC5)c4)c(OC)cc23)c(Cl)cc1Cl [Example 10, 4-[(2,4-dichloro-5-methoxyphenyl)amino]-6-methoxy-7-(5-{[4-(1-methylpiperidin-4-yl)piperazin-1-yl]methyl}-3-furyl)quinoline-3-carbonitrile]	0.5 nM
CCN(CC)Cc1cc(-c2cc3ncc(C#N)c(Nc4cc(OC)c(Cl)cc4Cl)c3cc2OC)co1 [Example 8, 4-[(2,4-dichloro-5-methoxyphenyl)amino]-7-{5-[(diethylamino)methyl]-3-furyl}-6-methoxyquinoline-3-carbonitrile]	0.9 nM and 0.8 nM
COc1cc(Nc2c(C#N)cnc3cc(-c4coc(CN5CCN(c6ccc(C)cc6)CC5)c4)c(OC)cc23)c(Cl)cc1Cl [Example 22, 4-[(2,4-dichloro-5-methoxyphenyl)amino]-6-methoxy-7-(5-{[4-(4-methylphenyl)piperazin-1-yl]methyl}-3-furyl)quinoline-3-carbonitrile]	12.8 nM and 14.3 nM
COc1cc(Nc2c(C#N)cnc3cc(-c4coc(CN5CCN(CCN6CCOCC6)CC5)c4)c(OC)cc23)c(Cl)cc1Cl [Example 13, 4-[(2,4-dichloro-5-methoxyphenyl)amino]-6-methoxy-7-(5-{[4-(2-morpholin-4-ylethyl)piperazin-1-yl]methyl}-3-furyl)quinoline-3-carbonitrile]	1 nM
COc1cc(Nc2c(C#N)cnc3cc(-c4coc(CN5CCN(Cc6ccccc6)CC5)c4)c(OC)cc23)c(Cl)cc1Cl [Example 14, 7-{5-[(4-benzylpiperazin-1-yl)methyl]-3-furyl}-4-[(2,4-dichloro-5-methoxyphenyl)amino]-6-methoxyquinoline-3-carbonitrile]	33.7 nM and 56.2 nM
COc1cc(Nc2c(C#N)cnc3cc(-c4coc(CN5CCC(N6CCCC6)CC5)c4)c(OC)cc23)c(Cl)cc1Cl [Example 11, 4-[(2,4-dichloro-5-methoxyphenyl)amino]-6-methoxy-7-{5-[(4-pyrrolidin-1-ylpiperidin-1-yl)methyl]-3-furyl}quinoline-3-carbonitrile]	1.1 nM and 1 nM
COc1cc(Nc2c(C#N)cnc3cc(-c4coc(CN5CCS(=O)(=O)CC5)c4)c(OC)cc23)c(Cl)cc1Cl [Example 17, 4-[(2,4-dichloro-5-methoxyphenyl)amino]-7-{5-[(1,1-dioxidothiomorpholin-4-yl)methyl]-3-furyl}-6-methoxyquinoline-3-carbonitrile]	2.4 nM and 2.1 nM
CCCN(CCC)Cc1cc(-c2cc3ncc(C#N)c(Nc4cc(OC)c(Cl)cc4Cl)c3cc2OC)co1 [Example 16, 4-[(2,4-dichloro-5-methoxyphenyl)amino]-7-{5-[(dipropylamino)methyl]-3-furyl]-6-methoxyquinoline-3-carbonitrile]	10.2 nM and 6.5 nM
CCN1CCN(Cc2cc(-c3cc4ncc(C#N)c(Nc5cc(OC)c(Cl)cc5Cl)c4cc3OC)co2)CC1 [Example 9, 4-[(2,4-dichloro-5-methoxyphenyl)amino]-7-{5-[(4-ethylpiperazin-1-yl)methyl]-3-furyl}-6-methoxyquinoline-3-carbonitrile]	0.6 nM and 0.7 nM

Results, then the compound that gave them:

IC50	Compound
9.1 nM and 7.8 nM	COc1cc(Nc2c(C#N)cnc3cc(-c4coc(CN5CCSCC5)c4)c(OC)cc23)c(Cl)cc1Cl [Example 26, 4-[(2,4-dichloro-5-methoxyphenyl)amino]-6-methoxy-7-[5-(thiomorpholin-4-ylmethyl)-3-furyl]quinoline-3-carbonitrile]
1.9 nM and 1.7 nM	COCCN1CCN(Cc2cc(-c3cc4ncc(C#N)c(Nc5cc(OC)c(Cl)cc5Cl)c4cc3OC)co2)CC1 [Example 30, 4-[(2,4-dichloro-5-methoxyphenyl)amino]-6-methoxy-7-(5-{[4-(2-methoxyethyl)piperazin-1-yl]methyl}-3-furyl)quinoline-3-carbonitrile]
2.9 nM and 2.6 nM	COCCN(C)Cc1cc(-c2cc3ncc(C#N)c(Nc4cc(OC)c(Cl)cc4Cl)c3cc2OC)co1 [Example 32, 4-[(2,4-dichloro-5-methoxyphenyl)amino]-6-methoxy-7-(5-{[(2-methoxyethyl)(methyl)amino]methyl}-3-furyl)quinoline-3-carbonitrile]
1 nM and 0.7 nM	COc1cc(Nc2c(C#N)cnc3cc(-c4coc(CN5CCN(C(C)C)CC5)c4)c(OC)cc23)c(Cl)cc1Cl [Example 28, 4-[(2,4-dichloro-5-methoxyphenyl)amino]-7-{5-[(4-isopropylpiperazin-1-yl)methyl]-3-furyl}-6-methoxyquinoline-3-carbonitrile]
1.9 nM and 1.8 nM	COc1cc(Nc2c(C#N)cnc3cc(-c4coc(CN5CCN(CCO)CC5)c4)c(OC)cc23)c(Cl)cc1Cl [Example 31, 4-[(2,4-dichloro-5-methoxyphenyl)amino]-7-(5-{[4-(2-hydroxyethyl)piperazin-1-yl]methyl}-3-furyl)-6-methoxyquinoline-3-carbonitrile]
14.1 nM and 14.4 nM	COc1cc(Nc2c(C#N)cnc3cc(-c4coc(CN5CCN(c6ccc(C(F)(F)F)cc6)CC5)c4)c(OC)cc23)c(Cl)cc1Cl [Example 25, 4-[(2,4-dichloro-5-methoxyphenyl)amino]-6-methoxy-7-[5-({4-[4-(trifluoromethyl)phenyl]piperazin-1-yl}methyl)-3-furyl]quinoline-3-carbonitrile]
1.3 nM and 1 nM	COc1cc(Nc2c(C#N)cnc3cc(-c4coc(CN5CCCN(C)CC5)c4)c(OC)cc23)c(Cl)cc1Cl [Example 29, 4-[(2,4-dichloro-5-methoxyphenyl)amino]-6-methoxy-7-{5-[(4-methyl-1,4-diazepan-1-yl)methyl]-3-furyl}quinoline-3-carbonitrile]
2.5 nM and 3 nM	COc1cc(Nc2c(C#N)cnc3cc(-c4coc(CN5CCN(Cc6ccncc6)CC5)c4)c(OC)cc23)c(Cl)cc1Cl [Example 34, 4-[(2,4-dichloro-5-methoxyphenyl)amino]-6-methoxy-7-(5-{[4-(pyridin-4-ylmethyl)piperazin-1-yl]methyl}-3-furyl)quinoline-3-carbonitrile]
3.2 nM and 2.5 nM	COc1cc(Nc2c(C#N)cnc3cc(-c4coc(CN(C)CCN(C)C)c4)c(OC)cc23)c(Cl)cc1Cl [Example 27, 4-[(2,4-dichloro-5-methoxyphenyl)amino]-7-(5-{[[2-(dimethylamino)ethyl](methyl)amino]methyl}-3-furyl)-6-methoxyquinoline-3-carbonitrile]
6 nM and 5.6 nM	COc1cc(Nc2c(C#N)cnc3cc(-c4coc(CN5CCN(c6ccc(O)cc6)CC5)c4)c(OC)cc23)c(Cl)cc1Cl [Example 24, 4-[(2,4-dichloro-5-methoxyphenyl)amino]-7-(5-{[4-(4-hydroxyphenyl)piperazin-1-yl]methyl}-3-furyl)-6-methoxyquinoline-3-carbonitrile]

same assay, conditions: Src enzyme IC50, 100 μM ATP; multiple entries = tested multiple times

Compound	IC50 [nM]
COc1cc(Nc2c(C#N)cnc3cc(-c4coc(CN5CCCCC5)c4)c(OC)cc23)c(Cl)cc1Cl [Example 7, 4-[(2,4-dichloro-5-methoxyphenyl)amino]-6-methoxy-7-[5-(piperidin-1-ylmethyl)-3-furyl]quinoline-3-carbonitrile]	0.7
